Each structure is given as a SMILES string.

This assay deals with AMP-activated protein kinase (AMPK). As to the kind of experiment: ADP Quest assay for AMPK activators. Format: biochemical. Also on record: key: fold AMPK activation at 30 μM activator vs none. To be noted: fold of AMPK activation to phosphorylate SAMS peptide without and with an activator at the concentration of 30 μM. As to the method: This method evaluates AMP-activated protein kinase (AMPK) activity through detecting the accumulation of ADP product using an ADP Quest kit and determining the E30 values of the small molecular AMPK activators. ADP Quest kit (DiscoveRx, Fremont, Calif.) is stored at −20° C. before use. Before an experiment, thaw the kit (include assay buffer, ADP standard solution, reagent A and reagent B) and equilibrate to room temperature. Dispense the ADP Quest reagents into single-use aliquots and store at −20° C. The compound concentrations typically range from 0 μM to 100 μM by 2-fold dilution. AMP concentrations range from 0.98 μM to 1 mM as the reference control. In an assay, thaw and equilibrate the assay buffer, reagent A and reagent B to room temperature for 30 minutes prior to use. Mix ATP, SAMS peptide substrate and compound, and place them into the 384-well assay plate. Add reagent A and B based on the assay kit protocol. Incubate the assay plate at room temperature for 30 minutes after addition the mixture followed by the addition of AMPK protein (Invitrogen, CA) to initiate the AMPK phosphorylation reaction. At the same time, reactions with AMPK activator AMP in the absence of enzyme is included as blank control. The reaction fluorescence signal is monitored and recorded on Envision in kinetic mode with the excitation wavelength of 530 nm and emission wavelength of 590 nm. The E30 value, defined as the fold of AMPK activation to phosphorylate SAMS peptide without and with an activator at the concentration of 30 μM, is calculated and analyzed using Prism 5.0.
The compound `CC1(C)CC(c2ccccc2NS(=O)(=O)c2cccnc2)Nc2ccc(C(=O)O)cc21` (centres unmarked) [Example-34, 4,4-Dimethyl-2-[2-(pyridine-3-sulfonylamino)-phenyl]-1,2,3,4-tetrahydro-quinoline-6-carboxylic acid] gave an E30 of 2.39. The figure for `CC1(C)CC(c2ccccc2NC(=O)c2ccccc2F)Nc2ccc(C(=O)O)cc21` (centres unmarked) [Example-35, 2-[2-(2-Fluoro-benzoylamino)-phenyl]-4,4-dimethyl-1,2,3,4-tetrahydro-quinoline-6-carboxylic acid] is 1.23. The figure for `CC1(C)CC(c2ccccc2NS(=O)(=O)c2cccnc2)Nc2ccc(Cl)cc21` (centres unmarked) [Example-36, Pyridine-3-sulfonic acid [2-(6-chloro-4,4-dimethyl-1,2,3,4-tetrahydro-quinolin-2-yl)-phenyl]-amide] is 1.34; for `CC1(C)CC(c2ccccc2NC(=O)c2cccc(F)c2)Nc2ccc(C(=O)O)cc21` (centres unmarked) [Example-37, 2-[2-(3-Fluoro-benzoylamino)-phenyl]-4,4-dimethyl-1,2,3,4-tetrahydro-quinoline-6-carboxylic acid] it is 1.20. For `CC1(C)CC(c2ccccc2NS(=O)(=O)c2ccccc2F)Nc2ccc(C(=O)O)cc21` (centres unmarked) [Example-39, 2-[2-(2-Fluoro-benzenesulfonylamino)-phenyl]-4,4-dimethyl-1,2,3,4-tetrahydro-quinoline-6-carboxylic acid], the E30 is 2.69. To `CC1(C)CC(c2ccccc2NS(=O)(=O)c2ccc(F)cc2)Nc2ccc(C(=O)O)cc21` (centres unmarked) [Example-40, 2-[2-(4-Fluoro-benzenesulfonylamino)-phenyl]-4,4-dimethyl-1,2,3,4-tetrahydro-quinoline-6-carboxylic acid] belongs 3.01. The compound `CC1(C)CC(c2ccccc2NS(=O)(=O)c2ccccc2)Nc2ccc(C(=O)O)cc21` (centres unmarked) [Example-41, 2-(2-Benzenesulfonylamino-phenyl)-4,4-dimethyl-1,2,3,4-tetrahydro-quinoline-6-carboxylic acid] came in with an E30 of 2.63. The figure for `CC1(C)CC(c2ccccc2NS(=O)(=O)c2cccc(F)c2)Nc2ccc(C(=O)O)cc21` (centres unmarked) [Example-42, 2-[2-(3-Fluoro-benzenesulfonylamino)-phenyl]-4,4-dimethyl-1,2,3,4-tetrahydro-quinoline-6-carboxylic acid] is 2.41. The figure for `CC1(C)CC(c2ccccc2NS(=O)(=O)c2cccc(F)c2)Nc2ccc(C(F)(F)F)cc21` (centres unmarked) [Example-43, N-[2-(4,4-Dimethyl-6-trifluoromethyl-1,2,3,4-tetrahydro-quinolin-2-yl)-phenyl]-3-fluoro-benzenesulfonamide] is 1.14; for `CC1(C)CC(c2ccccc2NS(=O)(=O)c2ccccc2F)Nc2ccc(C(F)(F)F)cc21` (centres unmarked) [Example-44, N-[2-(4,4-Dimethyl-6-trifluoromethyl-1,2,3,4-tetrahydro-quinolin-2-yl)-phenyl]-2-fluoro-benzenesulfonamide] it is 1.15; for `CC1(C)CC(c2ccccc2NS(=O)(=O)c2ccc(F)cc2)Nc2ccc(C(F)(F)F)cc21` (centres unmarked) [Example-45, N-[2-(4,4-Dimethyl-6-trifluoromethyl-1,2,3,4-tetrahydro-quinolin-2-yl)-phenyl]-4-fluoro-benzenesulfonamide] it is 1.15. The figure for `CCS(=O)(=O)Nc1ccccc1C1CC(C)(C)c2cc(C(F)(F)F)ccc2N1` (centres unmarked) [Example-46, Ethanesulfonic acid [2-(4,4-dimethyl-6-trifluoromethyl-1,2,3,4-tetrahydro-quinolin-2-yl)-phenyl]-amide] is 1.20.

Consider `CC(C)S(=O)(=O)Nc1ccccc1C1CC(C)(C)c2cc(C#N)ccc2N1` (centres unmarked) [Example-50, Propane-2-sulfonic acid [2-(6-cyano-4,4-dimethyl-1,2,3,4-tetrahydro-quinolin-2-yl)-phenyl]-amide], for which the E30 is on record as 1.19.

`CC1(C)CC(c2cccc(NS(=O)(=O)c3ccc(F)cc3)c2)Nc2ccc(C(F)(F)F)cc21` (centres unmarked) [Example-58, N-[3-(4,4-Dimethyl-6-trifluoromethyl-1,2,3,4-tetrahydro-quinolin-2-yl)-phenyl]-4-fluoro-benzenesulfonamide] registered an E30 of 1.34.

The record behind these values is US8546427B2, “Tetrahydroquinoline derivatives” (Hoffmann-La Roche Inc., priority 2010, dated 2013).
